Results: patent US9994623B2, “Entomotoxic polypeptides” (INSTITUT NATIONAL DE LA RECHERCHE AGRONOMIQUE, priority 2013, dated 2018)
Bridge positions count the residues as written; N and C are the ends. Ends that are not written are not given here. Peptide text beside a SMILES is read from it.

Columns and labels:
PA1b-binding site = assay: Affinity for the PA1b-binding site, ligand binding assay with 125I-labeled toxin; conditions: ligand binding with toxin labeled with iodine 125I; dash = no binding in the range of concentrations tested
Procedure: The affinity for the PA1b-binding site was determined by means of ligand binding assays using a toxin labeled with iodine ^125I, as previously described (Gressent et al., Eur J Biochem, 270, 2429-35, 2003).

[1] = tested on: Spodoptera frugiperda Sf9 cells; assay: Entomotoxicity (LC50) on cultured Sf9 cells, Celltiter-Blue viability test; assay type: cell-based; conditions: for toxicity / entomotoxic properties (in words): Sf9 cells, compared with reference PA1b
Procedure: The entomototoxic properties were determined by evaluation of the LC50 (50% lethal concentration) on cultures of Spodoptera frugiperda Sf9 cells, as described by Rahioui et al. (Biochimie, 89, 1539-43, 2007). The cells were cultured at 27° C. in medium from Lonza supplemented with 5% fetal calf serum (FCS) and 0.1% gentamicin, then seeded into 96-well plates, 24 h before the experiments (15,000 cells/wells) and exposed to increasing concentrations of synthetic peptide. After 24 h, the cell viability was determined using the Celltiter-Blue viability test (Promega), in accordance with the manufacturer's instructions. After the addition of the dye, the cells were incubated at 27° C. for 4 h. The absorbance was then measured at 570 and 600 nm using a microplate reader (MR 7000, Dynatech Laboratories Inc., USA).

## EFCSSVGSFCSPFNTNPCGYLGNCRCVPYYLYGGTCENPFG (disulfide 3-24, 10-26, 18-36 (inferred)) [EG41]
PA1b-binding site
  Ki: 72.8 ± 2.7 nM
[1]
  toxicity / entomotoxic properties (in words): toxicity comparable to that of the reference PA1b peptide

## CC[C@H](C)[C@@H]1NC(=O)CNC(=O)[C@H](CO)NC(=O)[C@@H](NC(=O)[C@H](CC(=O)O)NC(=O)[C@H](C)N)CSSC[C@@H]2NC(=O)[C@H](CC(=O)O)NC(=O)[C@H](CO)NC(=O)[C@H](CO)NC(=O)[C@H](CCCNC(=N)N)NC(=O)[C@@H]3CSSC[C@@H](C(=O)N[C@H](C(=O)N[C@@H](CC(N)=O)C(=O)N4CCC[C@H]4C(=O)N[C@H](C(=O)N[C@@H](CO)C(=O)O)[C@@H](C)CC)[C@@H](C)CC)NC(=O)[C@H](Cc4ccccc4)NC(=O)CNC(=O)CNC(=O)[C@H]([C@@H](C)CC)NC(=O)[C@H](CC(C)C)NC(=O)[C@H](C)NC(=O)[C@H]([C@@H](C)CC)NC(=O)[C@@H]4CCCN4C(=O)[C@H]([C@@H](C)CC)NC(=O)[C@H](CSSC[C@H](NC1=O)C(=O)N[C@@H](CO)C(=O)N1CCC[C@H]1C(=O)N[C@@H](Cc1ccccc1)C(=O)N[C@@H](CCC(=O)O)C(=O)N[C@@H](CCSC)C(=O)N1CCC[C@H]1C(=O)N1CCC[C@H]1C(=O)N3)NC(=O)[C@H](CCCNC(=N)N)NC2=O [AS37] (H-ADCSGICSPFEMPPCRSSDCRCIPIALIGGFCINPIS-OH; disulfide 3-20, 7-22, 15-32 (inferred); N-terminus and C-terminus assumed)
PA1b-binding site
  Ki: 15 ± 2 nM
[1]
  toxicity / entomotoxic properties (in words): toxicity comparable to that of the reference PA1b peptide

## DECWGPCSVLQTPPCPLSKCYCIPLFLVVGYCSHASS [DS37]
PA1b-binding site
  Ki: 694 ± 2 nM
[1]
  toxicity / entomotoxic properties (in words): do not have entomotoxic properties

## CC[C@H](C)[C@@H]1NC(=O)[C@H](C(C)C)NC(=O)[C@H](CC(C)C)NC(=O)CNC(=O)[C@H](C(C)C)NC(=O)[C@@H]2CCCN2C(=O)[C@H]([C@@H](C)CC)NC(=O)[C@@H]2CSSC[C@@H]3NC(=O)[C@H](C(C)C)NC(=O)CNC(=O)[C@H](CC(N)=O)NC(=O)[C@@H](NC(=O)[C@H](CO)NC(=O)[C@H](C)N)CSSC[C@H](NC(=O)[C@H](C)NC(=O)[C@H](CO)NC(=O)[C@H]([C@@H](C)O)NC(=O)CNC(=O)[C@H](CSSC[C@@H](C(=O)N[C@@H](CCCNC(=N)N)C(=O)N[C@@H](CC(N)=O)C(=O)N4CCC[C@H]4C(=O)N[C@@H](CO)C(=O)NCC(=O)O)NC(=O)[C@H](Cc4ccc(O)cc4)NC(=O)CNC1=O)NC(=O)[C@@H]1CCCN1C(=O)[C@@H]1CCCN1C(=O)[C@H](CCSC)NC(=O)[C@H](CCC(=O)O)NC(=O)[C@H](Cc1ccccc1)NC(=O)[C@@H]1CCCN1C(=O)[C@H](CO)NC3=O)C(=O)N[C@@H](CCCNC(=N)N)C(=O)N2 [PA1b, reference compound] (H-ASCNGVCSPFEMPPCGTSACRCIPVGLVIGYCRNPSG-OH; disulfide 3-20, 7-22, 15-32 (inferred); N-terminus and C-terminus assumed)
PA1b-binding site
  Ki: 17 ± 1.1 nM

## QSCIGFCSVFDSKPLCGSSRCRCNKPLNNPFVGICERRPST [QT41]
[1]
  toxicity / entomotoxic properties (in words): do not have entomotoxic properties

## ASCPNVGAVCSPFETKPCGNVKDCRCLPWGLFFGTCINPTG (disulfide 3-24, 10-26, 18-36) [AG41]
PA1b-binding site
  Ki: 1.3 ± 0.6 nM
[1]; fold versus pea PA1b
  toxicity relative to PA1b: close to ten times higher than that of PA1b

## GQCARVGMRCSRALPNPCGDIVTCRCVHLHLVGSTCIDYTGDGL [GL44]
[1]
  toxicity / entomotoxic properties (in words): do not have entomotoxic properties

## CC[C@H](C)[C@@H]1NC(=O)[C@H](Cc2ccccc2)NC(=O)[C@@H]2CSSC[C@@H]3NC(=O)[C@H](C)NC(=O)[C@H](CCC(=O)O)NC(=O)CNC(=O)[C@@H](NC(=O)[C@H](CCCCN)NC(=O)[C@H](C)N)CSSC[C@H](NC(=O)CNC(=O)[C@H](CC(=O)O)NC(=O)CNC(=O)[C@H](C)NC(=O)[C@H](CC(N)=O)NC(=O)[C@H](CSSC[C@@H](C(=O)N[C@@H](C)C(=O)N[C@@H](CCC(N)=O)C(=O)N[C@@H](CC(C)C)C(=O)N[C@@H](CO)C(=O)N[C@H](C(=O)O)[C@@H](C)O)NC(=O)[C@H](Cc4ccccc4)NC(=O)CNC(=O)[C@@H]4CCCN4C(=O)[C@H](CC(C)C)NC(=O)[C@H]([C@@H](C)O)NC(=O)[C@H](CC(C)C)NC(=O)[C@H](Cc4ccc(O)cc4)NC(=O)[C@H](C)NC(=O)[C@H](CC(=O)O)NC(=O)[C@H]([C@@H](C)O)NC1=O)NC(=O)[C@H](Cc1ccccc1)NC(=O)[C@H](CC(N)=O)NC(=O)[C@H](Cc1ccccc1)NC(=O)[C@H](CCC(N)=O)NC(=O)[C@H]([C@@H](C)O)NC(=O)[C@H](CC(=O)O)NC3=O)C(=O)N[C@@H](CCCNC(=N)N)C(=O)N2 [AS40] (H-AKCGEACDTQFNFCNAGDGCRCFITDAYLTLPGFCAQLST-OH; disulfide 3-20, 7-22, 14-35 (inferred); N-terminus and C-terminus assumed)
PA1b-binding site
  Ki: 10.3 ± 2 nM
[1]
  toxicity / entomotoxic properties (in words): toxicity comparable to that of the reference PA1b peptide
